Tests used:
[1] = test system: hay bacillus, Escherichia coli, sake yeast, penicillium; test: Antimicrobial action/effect (overall statement); format: cell-based; settings: rank order among Gnetin C, Gnemonocide A, D
[2] = DPPH radical scavenging (antioxidative action) test; format: biochemical; settings: rank order among Gnetin C, Gnemonocide A, D
Experimental: After 6 hours, decreases of absorbance (absorbance difference) at 517 nm of these reaction solutions were measured.

Substance | order of antimicrobial action of the identified ingredients [1] | order of scavenging radical action (antioxidative effect) to DPPH [2]
Gnemonocide C | Gnetin C>Gnemonocide C≈Gnemonocide D | Gnetin C>Gnemonocide C≈Gnemonocide D>Gnemonocide A
Gnemonocide D | Gnetin C>Gnemonocide C≈Gnemonocide D | Gnetin C>Gnemonocide C≈Gnemonocide D>Gnemonocide A
Gnemonocide A | does not show the antimicrobial action | Gnetin C>Gnemonocide C≈Gnemonocide D>Gnemonocide A
